Where two headings read alike, the source gives them in different places.
Key:
5HT2B receptor [1] = biological target: T1, 5HT2B receptor (Homo sapiens, UniProt P41595); assay: 5HT2B functional antagonist assay; format: cell-based
Protocol: Quantification of myo-Inositol-1-phosphate was performed using HTRF.

5HT2B receptor [2] = biological target: T1, 5HT2B receptor; assay: 5HT2B competitive binding assay
human 5-HT2A receptor [3] = biological target: T2, human 5-HT2A receptor (Homo sapiens (Human), UniProt P28223); assay: 5HT2A competitive binding assay (Eurofins Cerep)
Excerpt: The compound is approximately equipotent to psilocybin based on data from the http:/PDSP.unc.edu/databases/pdsp.php.

5HT2C receptor [4] = biological target: T3, 5HT2C receptor (Homo sapiens, UniProt P28335); conditions: phosphoinositol hydrolysis; read-out: Agonist potency at human 5-HT2C receptor; cited from earlier work
Adrenergic Alpha 1A = Adrenergic Alpha 1A (Homo sapiens (Human), UniProt P35348); assay: Functional GCPR assay, inhibition, Adrenergic Alpha 1A; format: cell-based; conditions: read-out: IC50 (A1A) inhibition in functional GCPR assay
[5] = Pharmacokinetics after i.v. administration in rats; format: in vivo; conditions: plasma, iv; rat, i.v. 1.0 mg/kg
Protocol: (§1) The compound of Example 1 was dispersed in water containing phosphate buffered saline at a rate of 1 mg/ml and then acidified to pH 4 to create a solution. The solution was administered to each of 3 rats (ca. 300 g each) at a rate of 1.0 mg/kg (ca. dose 0.33 ml, […]) via a catheter placed in the jugular vein. Animals were observed over a period of 12 h with counting the cumulative number head-twitch actions over each 10 min up to 2 hours and then for 10 min each at 3, 3.5 and 4 hours. Blood samples (0.25 ml) were collected via the catheter using 1 ml syringes into 0.8 ml K2EDTA tubes at 0.0833, 0.25, 0.5, 0.75, 1, 2, 4, 6 hours after the dose and placed on wet ice until processing. Psychological saline (0.25 ml) was reinjected after each blood draw via the catheter to the animal to flush the catheter and replenish blood volumes. The blood samples collected were centrifuged (3200 g, 5 min, 4 C) within 5 min of collection and the plasma recovered and placed in a cryovial and frozen in liquid nitrogen and stored at −80 C thereafter until analysis. A bioanalytical method was developed to quantify the compound in plasma using a Sciex 6500 Q-trap MSMS equipped with a standard LC system and after calibration with the compound of the example.

5HT2B receptor [6] = biological target: T1, 5HT2B receptor; assay: 5HT2B (IP1) functional agonist assay; format: cell-based
human recombinant 5-HT1A = human recombinant 5-HT1A (Homo sapiens (Human), UniProt P08908); assay: 5HT1A competitive binding assay (Eurofins Cerep); conditions: for Ki: [3H]8-OHDPAT 0.5 nM, HEK-293, Cheng Prusoff, read-out: 5HT1A binding constant Ki
human 5-HT2A receptor [7] = biological target: T2, human 5-HT2A receptor; assay: 5HT2A functional assay (agonism); format: cell-based
Adrenergic Alpha 2A = Adrenergic Alpha 2A (Homo sapiens (Human), UniProt P08913); assay: Functional GCPR assay, inhibition, Adrenergic Alpha 2A; format: cell-based; conditions: read-out: IC50 (A2A) inhibition in functional GCPR assay
5HT2C receptor [8] = conditions: binding Ki ratio
rats = assay: Head-twitch counting during rat i.v. PK experiment; format: in vivo; conditions: i.v. 1.0 mg/kg, duration of PK experiment
Protocol: as §1

5HT2C receptor [9] = biological target: T3, 5HT2C receptor; assay: biochemical
patients = conditions: cited from earlier work
cancer patients = conditions: high-dose, 6-month follow-up; cited from earlier work
[10] = tested on: patients with alcohol dependence; conditions: 10 patients with alcohol dependence; cited from earlier work
[11] = tested on: participants with tobacco addiction; conditions: cited from earlier work
[12] = 2A Binding, Table 1, all units nM
[13] = Table 1, all units nM, read-out: 2B IC50 Functional Antagonist
[14] = Table 1, all units nM, read-out: 2B Binding
[15] = Table 1, all units nM, read-out: 2A Binding
[16] = 125I-DOI 0.2 nM, CHO cells, Cheng Prusoff, read-out: 5HT2B binding constant Ki
[17] = Table 1, all units nM, read-out: 2B EC50 Functional Agonist

T1 sequence (P41595 whole entry): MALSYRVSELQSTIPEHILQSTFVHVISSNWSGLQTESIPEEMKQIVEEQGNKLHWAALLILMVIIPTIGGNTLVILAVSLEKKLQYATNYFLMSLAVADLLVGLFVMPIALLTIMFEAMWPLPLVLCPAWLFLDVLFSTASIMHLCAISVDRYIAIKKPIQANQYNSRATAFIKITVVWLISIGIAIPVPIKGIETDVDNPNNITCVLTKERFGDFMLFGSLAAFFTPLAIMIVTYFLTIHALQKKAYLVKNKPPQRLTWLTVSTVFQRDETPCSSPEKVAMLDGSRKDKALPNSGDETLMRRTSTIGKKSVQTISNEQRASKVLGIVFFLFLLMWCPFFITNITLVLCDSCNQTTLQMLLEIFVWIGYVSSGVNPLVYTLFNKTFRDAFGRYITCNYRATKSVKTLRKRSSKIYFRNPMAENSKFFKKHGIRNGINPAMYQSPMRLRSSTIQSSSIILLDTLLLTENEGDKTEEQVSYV
T3 sequence (P28335 33-458 limits assumed): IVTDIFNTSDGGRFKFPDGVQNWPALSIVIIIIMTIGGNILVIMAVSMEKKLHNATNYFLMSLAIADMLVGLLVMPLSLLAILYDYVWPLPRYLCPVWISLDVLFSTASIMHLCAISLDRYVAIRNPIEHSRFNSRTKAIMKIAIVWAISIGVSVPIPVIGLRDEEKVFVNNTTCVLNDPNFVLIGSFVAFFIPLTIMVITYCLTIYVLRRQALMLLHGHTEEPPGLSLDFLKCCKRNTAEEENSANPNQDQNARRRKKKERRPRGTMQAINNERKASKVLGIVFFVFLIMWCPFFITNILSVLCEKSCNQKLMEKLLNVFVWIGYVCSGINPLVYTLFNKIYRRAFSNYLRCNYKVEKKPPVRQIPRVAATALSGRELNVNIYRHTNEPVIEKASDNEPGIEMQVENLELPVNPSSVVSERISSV
Adrenergic Alpha 1A, sequence (P35348 whole entry): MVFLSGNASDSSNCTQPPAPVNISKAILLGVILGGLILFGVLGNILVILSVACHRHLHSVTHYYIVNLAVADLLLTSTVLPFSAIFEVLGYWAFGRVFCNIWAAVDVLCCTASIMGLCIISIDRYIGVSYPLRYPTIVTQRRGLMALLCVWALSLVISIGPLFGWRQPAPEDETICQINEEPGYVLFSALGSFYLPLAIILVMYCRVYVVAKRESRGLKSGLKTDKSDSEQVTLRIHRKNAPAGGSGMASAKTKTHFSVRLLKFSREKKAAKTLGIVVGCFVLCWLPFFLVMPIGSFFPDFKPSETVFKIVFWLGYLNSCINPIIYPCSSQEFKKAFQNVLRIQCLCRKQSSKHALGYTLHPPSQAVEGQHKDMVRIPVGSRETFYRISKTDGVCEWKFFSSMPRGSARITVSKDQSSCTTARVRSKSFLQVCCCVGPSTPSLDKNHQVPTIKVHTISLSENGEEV
Adrenergic Alpha 2A, sequence (P08913 whole entry): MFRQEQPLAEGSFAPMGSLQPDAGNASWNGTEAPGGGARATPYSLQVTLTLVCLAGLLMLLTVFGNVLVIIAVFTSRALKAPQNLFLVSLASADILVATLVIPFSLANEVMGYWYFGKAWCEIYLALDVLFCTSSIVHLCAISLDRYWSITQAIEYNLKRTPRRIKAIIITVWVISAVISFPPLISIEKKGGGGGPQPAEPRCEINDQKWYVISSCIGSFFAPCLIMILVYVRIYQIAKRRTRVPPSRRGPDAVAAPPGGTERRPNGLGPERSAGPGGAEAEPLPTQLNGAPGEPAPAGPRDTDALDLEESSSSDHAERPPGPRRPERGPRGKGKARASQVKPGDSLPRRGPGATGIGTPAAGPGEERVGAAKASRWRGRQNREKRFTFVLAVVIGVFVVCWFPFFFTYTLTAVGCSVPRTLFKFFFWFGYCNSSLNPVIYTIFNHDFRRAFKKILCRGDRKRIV

Molecule COc1ccc2[nH]cc(CCN(C)Cc3c(OC)cccc3OC)c2c1 [A, reference compound] has an IC50 (5HT2B receptor [1]) greater than 10000 nM, a Ki (5HT2B receptor [2]) of 402 nM and a Ki (human 5-HT2A receptor [3]; [12]) of 1600 nM.
For COc1cc(OC)c(CN(CCc2c[nH]c3ccc(OC)cc23)C(C)C)c(OC)c1 [B, reference compound], the IC50 (5HT2B receptor [1]; [13]) was greater than 10000 nM, the Ki (5HT2B receptor [2]; [14]) was 4930 nM and the Ki (human 5-HT2A receptor [3]; [15]) was 4600 nM.
In the case of COc1ccc2[nH]cc(CCN(C)Cc3cc(OC)c(OC)c(OC)c3)c2c1 [C, reference compound], the IC50 (5HT2B receptor [1]) is reported as 2050 nM, the Ki (5HT2B receptor [2]) is reported as 76 nM and the Ki (human 5-HT2A receptor [3]; [12]) is reported as 340 nM.
For CCCCn1cc(CCN(C)C)c2c(O)cccc21 [Compound 6], the EC50 (5HT2C receptor [4]) is given as roughly 600 nM.
For COc1ccc2[nH]cc(CCN(C)Cc3ccccc3OC)c2c1 [Example 1], the IC50 (5HT2B receptor [1]; CHO cells, background serotonin 10 uM, read-out: 5HT2B functional antagonist IC50) was less than 10000 nM, the “5HT2B functional mode (antagonist)” value (5HT2B receptor [1]; relative to serotonin) was “full antagonist” and the IC50 (Adrenergic Alpha 1A) was 1800 nM. For the same molecule, the half-life [5] was 1.1 h, the “5HT2B functional agonist EC50 (IP1)” value (5HT2B receptor [6]; CHO cells, HTRF, serotonin 1 uM control) was “could not be determined for lack of activity” and the Ki (human recombinant 5-HT1A) was 540 nM. The “Selectivity for 5HT2A over 5HT1A (Ki)” value (human recombinant 5-HT1A; binding Ki ratio) was “about 5 fold”, the Ki (5HT2B receptor [2]; [16]) was 180 nM and the EC50 (human 5-HT2A receptor [7]; HEK-293) was 520 nM. The Emax (human 5-HT2A receptor [7]; at the highest concentrations, read-out: 5HT2A maximum efficacy) was 80%, the IC50 (Adrenergic Alpha 2A) was 1700 nM and the “Selectivity for 5HT2A over 5HT2C (Ki)” value (5HT2C receptor [8]) was “about 6 fold”. For the same molecule, the Head twitch activity (rats) was “no significant head twitch activity” and the Ki (5HT2C receptor [9]) was 680 nM.
In the case of COc1cccc(CN(C)CCc2c[nH]c3ccccc23)c1 [Example 10], the IC50 (5HT2B receptor [6]; Example 10, read-out: 5HT2B functional agonist mode IC50) is reported as 1050 nM, the “5HT2B functional agonist mode efficacy” value (5HT2B receptor [6]; up to 30 uM) is reported as less than 20% and the Ki (human recombinant 5-HT1A) is reported as 510 nM. It also gave a Ki (5HT2B receptor [2]; [16]) of 380 nM, a Ki (human 5-HT2A receptor [3]; 125I-DOI 0.1 nM, HEK-293, Cheng Prusoff, read-out: 5HT2A binding constant Ki) of 14 nM and a Ki (5HT2C receptor [9]) of 42 nM.
Work on CCN(CCc1c[nH]c2ccc(OC)cc12)Cc1ccccc1OC [Example 11, N-ethyl-2-(5-methoxy-1H-indol-3-yl)-N-(2-methoxybenzyl)ethan-1-amine] yielded an EC50 (5HT2B receptor [6]) greater than 10000 nM, a Ki (5HT2B receptor [2]) of 173 nM and a Ki (human 5-HT2A receptor [3]; [12]) of 170 nM.
For COc1ccc2[nH]cc(CCN(Cc3ccccc3OC)C(C)C)c2c1 [Example 12, N-(2-(5-methoxy-1H-indol-3-yl)ethyl)-N-(2-methoxybenzyl)propan-2-amine], the EC50 (5HT2B receptor [6]; [17]) was greater than 10000 nM, the Ki (5HT2B receptor [2]; [14]) was 341 nM and the Ki (human 5-HT2A receptor [3]; [15]) was 277 nM.
C=CCN(CCc1c[nH]c2ccc(OC)cc12)Cc1ccccc1OC [Example 13, N-(2-(5-methoxy-1H-indol-3-yl)ethyl)-N-(2-methoxybenzyl)prop-2-en-1-amine] gave an IC50 (5HT2B receptor [1]; [13]) greater than 10000 nM, an EC50 (5HT2B receptor [6]; [17]) greater than 10000 nM and a Ki (5HT2B receptor [2]; [14]) of 73 nM. It also gave a Ki (human 5-HT2A receptor [3]; [15]) of 76 nM.
Molecule COc1ccc(CN(C)CCc2c[nH]c3ccccc23)cc1 [Example 14, 2-(1H-indol-3-yl)-N-(4-methoxybenzyl)-N-methylethan-1-amine] has an IC50 (5HT2B receptor [1]; [13]) of 1670 nM, a Ki (5HT2B receptor [2]; [14]) of 69 nM and a Ki (human 5-HT2A receptor [3]; [15]) of 280 nM.
Work on COc1cccc(CN(C)CCc2c[nH]c3ccccc23)c1OC [Example 15, N-(2,3-dimethoxybenzyl)-2-(H-indol-3-yl)-N-methylethan-1-amine] yielded an IC50 (5HT2B receptor [1]) of 1370 nM, a Ki (5HT2B receptor [2]) of 48 nM and a Ki (human 5-HT2A receptor [3]; [12]) of 274 nM.
Molecule COc1cccc(CN(CCc2c[nH]c3ccccc23)C(C)C)c1OC [Example 16, N-(2-(1H-indol-3-yl)ethyl)-N-(2,3-dimethoxybenzyl)prop-2-an-1-amine] has an IC50 (5HT2B receptor [1]; [13]) greater than 10000 nM, an EC50 (5HT2B receptor [6]; [17]) greater than 10000 nM and a Ki (5HT2B receptor [2]; [14]) of 313 nM. It also gave a Ki (human 5-HT2A receptor [3]; [15]) of 2630 nM.
Work on CN(CCc1c[nH]c2ccccc12)Cc1ccccc1 [Example 17, N-(2-(1H-indol-3-yl)ethyl)-N-(benzyl)methan-1-amine] yielded an IC50 (5HT2B receptor [1]; [13]) greater than 10000 nM, a Ki (5HT2B receptor [2]; [14]) of 45 nM and a Ki (human 5-HT2A receptor [3]; [15]) of 60 nM.
Work on C/C=C\CN(CCc1c[nH]c2ccccc12)Cc1cccc(OC)c1 [Example 19, (Z)—N-(2-(1H-indol-3-yl)ethyl)-N-(3-methoxybenzyl)but-2-en-1-amine] yielded an IC50 (5HT2B receptor [1]; [13]) of 3380 nM, an EC50 (5HT2B receptor [6]; [17]) greater than 10000 nM and a Ki (5HT2B receptor [2]; [14]) of 44 nM. It also gave a Ki (human 5-HT2A receptor [3]; [15]) of 31 nM.
For C=C(C)CN(CCc1c[nH]c2ccccc12)Cc1cccc(OC)c1 [Example 20, N-(2-(1H-indol-3-yl)ethyl)-N-(3-methoxybenzyl)2-methylprop-2-en-1-amine], the Ki (human 5-HT2A receptor [3]; [15]) was 135 nM.
Molecule CCc1cccc(CN(C)CCc2c[nH]c3ccccc23)c1 [Example 21, 2-(1H-indol-3-yl)-N-(3-ethylbenzyl)-N-methylethan-1-amine] has an IC50 (5HT2B receptor [1]; [13]) of 687 nM and a Ki (human 5-HT2A receptor [3]; [15]) of 5 nM.
Molecule CN(CCc1c[nH]c2ccccc12)Cc1cccc(O)c1 [Example 22, 3-(((2-(1H-indol-3-yl)ethyl)(methyl)amino)methyl)phenol] has an IC50 (5HT2B receptor [1]) greater than 10000 nM, a Ki (5HT2B receptor [2]) of 31 nM and a Ki (human 5-HT2A receptor [3]; [12]) of 35 nM.
CN(CCc1c[nH]c2ccccc12)Cc1cccc(Br)c1 [Example 23, N-(3-bromobenzyl)-2-(1H-indol-3-yl)-N-methylethan-1-amine] gave an IC50 (5HT2B receptor [1]; [13]) of 1620 nM, a Ki (5HT2B receptor [2]; [14]) of 22 nM and a Ki (human 5-HT2A receptor [3]; [15]) of 11 nM.
With CN(CCc1c[nH]c2ccccc12)Cc1cccc(CO)c1 [Example 24, N-(2-(1H-indol-3-yl)ethyl)-N-(3-hydroxymethylbenzyl)methan-1-amine] the IC50 (5HT2B receptor [1]; [13]) was 6990 nM, the Ki (5HT2B receptor [2]; [14]) was 50 nM and the Ki (human 5-HT2A receptor [3]; [15]) was 59 nM.
Molecule C#Cc1cccc(CN(C)CCc2c[nH]c3ccccc23)c1 [Example 25, 2-(1H-indol-3-yl)-N-(3-ethynylbenzyl)-N-methylethan-1-amine] has an IC50 (5HT2B receptor [1]; [13]) of 2560 nM, an EC50 (5HT2B receptor [6]; [17]) of 163 nM and a Ki (5HT2B receptor [2]; [14]) of 13 nM. For the same molecule, the Ki (human 5-HT2A receptor [3]; [15]) was 6 nM.
Work on CN(CCc1c[nH]c2ccccc12)Cc1cccc2c1OCO2 [Example 26] yielded an IC50 (5HT2B receptor [1]; [13]) of 1090 nM, a Ki (5HT2B receptor [2]; [14]) of 60 nM and a Ki (human 5-HT2A receptor [3]; [15]) of 73 nM.
In the case of COc1cccc(CN(C)CCc2c[nH]c3ccc(OC)cc23)c1 [Example 27, 2-(5-methoxy-1H-indol-3-yl)-N-(3-methoxybenzyl)-N-methylethan-1-amine], the Ki (5HT2B receptor [2]) is reported as 16 nM and the Ki (human 5-HT2A receptor [3]; [12]) is reported as 16 nM.
For COc1ccccc1CN(C)CCc1c[nH]c2ccccc12 [Example 28, 2-(1H-indol-3-yl)-N-(2-methoxybenzyl)-N-methylethan-1-amine], the Ki (5HT2B receptor [2]) was 253 nM and the Ki (human 5-HT2A receptor [3]; [12]) was 130 nM.
Work on C=CCN(CCc1c[nH]c2ccccc12)Cc1cccc(OC)c1 [Example 29, N-(2-(1H-indol-3-yl)ethyl)-N-(3-methoxybenzyl)prop-2-en-1-amine] yielded a Ki (5HT2B receptor [2]; [14]) of 21 nM and a Ki (human 5-HT2A receptor [3]; [15]) of 28 nM.
For C[C@H]1CNCCc2ccc(Cl)cc21 [Locaserin], the “Risk of cardiac valvulopathy” value (patients) is listed as “no increased risk of cardiac valvulopathy”.
In the case of CN(C)CCc1c[nH]c2cccc(OP(=O)(O)O)c12 [psilocybin], the “Participants continuing to show clinically significant decreases in depressed mood and anxiety” value (cancer patients) is given as “about 80%”, the “Alcohol use post administration” value [10] is given as “significant decrease in alcohol use” and the Participants abstinent ([11]; 2.5 years after the target quit date) is given as 75%. The “Participants with biologically verified 7-day point-prevalence abstinence” value ([11]; 6-month follow up) was “eighty” and the “Participants biologically verified as abstinent” value ([11]; 12-month follow-up) was 67%.
